Reference: US8481727B2, “Crystals of hydrochloride of pyridazin-3(2H)-one compound and process for production of same” (Nissan Chemical Industries, Ltd., priority 2008, dated 2013)

Test: Dissolution test, paddle method in Japanese Pharmacopoeia (Test Example 1)
Format: physicochemical
Conditions: about 10 mg in 900 ml test fluid, 50 rpm; dissolution test first fluid (pH 1.2) and second fluid (pH 6.8); sampling at 10, 30, 60 and 120 minutes; UV measurement; compared with A-form crystal
Experimental: About 10 mg of each of A-form crystal (Form A) obtained in Example 1, B-form crystal (Form B) obtained in Example 2 and H-form crystal (Form H) obtained in Example 3 was sampled, and a test was carried out at 50 rpm by the dissolution test method paddle method in Japanese Pharmacopoeia using 900 ml of a test fluid. Upon expiration of 10 minutes, 30 minutes, 60 minutes and 120 minutes after initiation of the test, sampling was carried out, and UV measurements were carried out, whereupon the dissolution ratios were calculated. Here, as the dissolution tester, NTR-VS6P manufactured by TOYAMA SANGYO CO., LTD. was used; as the spectrophotometer, UV-2400PC manufactured by Shimadzu Corporation was used; and as the test fluid, the dissolution test first fluid (pH 1.2) and second fluid (pH 6.8) were used. The results are shown in FIGS. 3 and 4 (the ordinate represents the dissolution ratio (%), and the abscissa represents the dissolution time (minutes)).

Q: With `Cl.O=c1[nH]nc(OCCCc2ccc(Cl)cc2)c(NCc2cccnc2)c1Br` [B-form crystal, 4-bromo-6-(3-(4-chlorophenyl)propoxy)-5-(pyridin-3-ylmethylamino)pyridazin-3(2H)-one mono-hydrochloride] as the molecule, how does the “solubility (dissolution ratio)” value read?
A: superior to A-form crystal in solubility
